According to US20210070866A1, “Pharmaceutical Composition For Preventing Or Treating Tissue Adhesion Comprising Integrin a2ß1 Inhibitors” (KOREA UNIVERSITY RESEARCH AND BUSINESS FOUNDATION, priority 2019, published 2021):

Columns and labels:
[1] = system: hDMCs; assay: Cytotoxicity assay of BTT 3033 (cell viability assay, WST); type: cell-based, human; conditions: for Viability (A.U.): 37° C., 90 min
Experimental: To evaluate cell viability, EZ-Cytox cell viability assay kit (Daeillab Service Ltd., Seoul, Republic of Korea) was used according to the manufacturer's instructions. Water-soluble tetrazolium salt (WST) reagent was added to each well. After 1 hour of incubation, the absorbance of the supernatant was measured at the wavelength of 450 nm on a microplate absorbance reader. The viability was assessed by normalized absorbance values.
For cytotoxicity assay of BTT 3033, hDMCs were treated with BTT 3033 in a dose dependent manner and incubated at 37° C. for 90 min. After incubation, cell viability assay was performed.

[2] = system: co-cultured hDMCs; assay: Adhesion assay of co-cultured hDMCs to ECM components after integrin α2β1 inhibitor treatment; type: cell-based, human; conditions: 130 nM, 37° C., 30 min
Experimental: Adhesion assays identifying ECM components adhering to hDMC were performed using CytoSelect 48-well cell adhesion assay kits (Cell Biolabs Inc., San Diego, Calif.).
After detachment of naïve hDMCs and MΦ-co-cultured hDMCs, cell suspensions were prepared in serum-free DMEM. A total of 1.5×10^3 cells in 150 μl serum-free medium were added to each well and incubated for 1 hour at 37° C. After removal of the medium, the cells were washed four times with 150 μl PBS.
Cell staining and protein extraction were performed according to the manufacturer's instructions. Cellular adhesion was assessed by measuring the optical density at 560 nm on a Gemini XPS Microplate Reader (Molecular Devices, Sunnyvale, Calif.).
For an adhesion assay for the functional validation of integrin α2β1, the co-cultured hDMCs were incubated with 130 nM BTT 3033 at 37° C. for 30 min. After incubation, an adhesion assay was performed as described above.

[3] = target: integrin α2β1 (Homo sapiens, UniProt P17301); conditions: according to manufacturer's instructions; read-out: half maximal effective concentration (EC50); cited from earlier work
Chain of integrin α2β1 (P17301 30-1181): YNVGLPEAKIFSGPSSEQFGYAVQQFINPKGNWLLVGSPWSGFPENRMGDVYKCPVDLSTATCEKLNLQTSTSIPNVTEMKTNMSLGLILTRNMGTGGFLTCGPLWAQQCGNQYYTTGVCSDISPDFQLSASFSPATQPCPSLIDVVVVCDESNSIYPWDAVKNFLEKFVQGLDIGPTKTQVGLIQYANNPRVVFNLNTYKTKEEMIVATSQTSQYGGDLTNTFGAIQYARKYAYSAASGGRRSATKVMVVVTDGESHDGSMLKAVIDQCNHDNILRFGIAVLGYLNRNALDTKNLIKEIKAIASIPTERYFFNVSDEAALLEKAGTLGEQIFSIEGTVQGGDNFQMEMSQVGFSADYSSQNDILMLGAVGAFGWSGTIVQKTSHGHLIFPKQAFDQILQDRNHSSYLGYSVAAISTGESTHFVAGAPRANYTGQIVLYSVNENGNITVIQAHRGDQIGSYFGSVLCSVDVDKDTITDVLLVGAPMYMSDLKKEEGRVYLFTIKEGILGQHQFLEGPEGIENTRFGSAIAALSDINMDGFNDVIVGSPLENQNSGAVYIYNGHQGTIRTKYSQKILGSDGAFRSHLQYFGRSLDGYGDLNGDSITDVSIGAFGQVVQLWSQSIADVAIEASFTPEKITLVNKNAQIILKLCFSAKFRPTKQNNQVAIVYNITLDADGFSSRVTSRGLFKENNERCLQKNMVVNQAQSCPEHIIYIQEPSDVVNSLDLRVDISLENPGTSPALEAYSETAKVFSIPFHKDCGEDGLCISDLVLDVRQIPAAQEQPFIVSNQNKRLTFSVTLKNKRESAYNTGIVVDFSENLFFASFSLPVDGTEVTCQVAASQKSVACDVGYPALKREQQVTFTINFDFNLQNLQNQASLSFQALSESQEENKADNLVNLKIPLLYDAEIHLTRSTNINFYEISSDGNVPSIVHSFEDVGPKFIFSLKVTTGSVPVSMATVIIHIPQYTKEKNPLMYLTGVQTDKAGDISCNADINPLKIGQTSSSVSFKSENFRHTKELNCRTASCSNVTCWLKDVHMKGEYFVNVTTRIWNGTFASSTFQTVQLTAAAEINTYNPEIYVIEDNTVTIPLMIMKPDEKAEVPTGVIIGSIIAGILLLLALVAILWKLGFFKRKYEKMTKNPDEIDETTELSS
Chain of integrin α2β1 (P05556 21-798 partner): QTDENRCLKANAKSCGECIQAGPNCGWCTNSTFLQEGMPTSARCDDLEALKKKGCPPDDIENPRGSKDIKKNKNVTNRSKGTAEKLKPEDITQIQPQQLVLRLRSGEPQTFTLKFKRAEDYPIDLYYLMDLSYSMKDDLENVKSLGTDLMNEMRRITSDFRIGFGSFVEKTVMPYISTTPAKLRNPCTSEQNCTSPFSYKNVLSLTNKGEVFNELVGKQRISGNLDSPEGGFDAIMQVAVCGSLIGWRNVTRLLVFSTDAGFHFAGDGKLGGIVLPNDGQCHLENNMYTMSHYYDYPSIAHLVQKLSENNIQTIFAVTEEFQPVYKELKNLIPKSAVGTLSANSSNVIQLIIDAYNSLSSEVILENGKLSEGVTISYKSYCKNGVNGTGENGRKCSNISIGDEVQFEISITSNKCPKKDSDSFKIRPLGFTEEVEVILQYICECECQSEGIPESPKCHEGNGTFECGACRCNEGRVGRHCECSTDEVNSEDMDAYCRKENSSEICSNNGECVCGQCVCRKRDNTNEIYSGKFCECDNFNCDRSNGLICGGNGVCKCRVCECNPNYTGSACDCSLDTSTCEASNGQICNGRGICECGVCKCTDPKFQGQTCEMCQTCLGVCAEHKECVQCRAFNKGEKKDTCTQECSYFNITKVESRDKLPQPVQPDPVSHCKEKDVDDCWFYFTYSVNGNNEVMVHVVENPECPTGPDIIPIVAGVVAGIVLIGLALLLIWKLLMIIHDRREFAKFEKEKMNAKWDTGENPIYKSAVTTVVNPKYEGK

**Q.** With `CN(c1ccc(NC(=O)Nc2ccccc2)cc1)S(=O)(=O)c1cnn(-c2ccc(F)cc2)c1` [BTT 3033, 1-(4-Fluorophenyl)-N-methyl-N-[4[[(phenylamino)carbonyl]amino]phenyl]-1H-pyrazole-4-sulfonamide] as the molecule, how does the “Viability (A.U.)” value ([1]; BTT 3033 16.25 nM) read?
**A.** Its value is 0.896 ± 0.090 A.U.

**Q.** What about the “Viability (A.U.)” value ([1]; BTT 3033 32.50 nM) of the same molecule?
**A.** The value was 0.844 ± 0.099 A.U.

**Q.** And the “Viability (A.U.)” value ([1]; BTT 3033 65.00 nM)?
**A.** The value was 0.899 ± 0.075 A.U.

**Q.** What about the “Viability (A.U.)” value ([1]; BTT 3033 130.00 nM) of the same molecule?
**A.** The value was 0.800 ± 0.054 A.U.

**Q.** What about the “Viability (A.U.)” value ([1]; BTT 3033 260.00 nM) of the same molecule?
**A.** The value was 0.854 ± 0.081 A.U.

**Q.** And the “Viability (A.U.)” value ([1]; BTT 3033 520.00 nM)?
**A.** The value was 0.827 ± 0.069 A.U.

**Q.** What about the cytotoxicity ([1]; concentration from 16.25 to 520.00 nM) of the same molecule?
**A.** Its cytotoxicity is “less than 20.0%”.

**Q.** And the “adhesion of co-cultured hDMCs to collagen I” value ([2]; un-treated 0.43±0.03)?
**A.** Its value is 0.27±0.04.

**Q.** What about the “adhesion of co-cultured hDMCs to collagen IV” value ([2]; un-treated 0.44±0.08) of the same molecule?
**A.** Its value is 0.28±0.08.

**Q.** What about the “reduction of adhesion of co-cultured hDMCs to collagen I” value ([2]; vs un-treated, p<0.001) of the same molecule?
**A.** Its value is 37.8%.

**Q.** What about the “reduction of adhesion of co-cultured hDMCs to collagen IV” value ([2]; vs un-treated, p=0.057) of the same molecule?
**A.** The value was 35.7%.

**Q.** And the EC50 [3]?
**A.** Its EC50 is 130 nM.
